One data set has as its system Hepatitis B virus. As to conditions: Chang et al., 1992; cited from earlier work.
Data set [1] deals with human immunodeficiency virus (HIV). As to conditions: Larder et al., 1990, cited from earlier work.
Data set [2] deals with Hepatitis B viral infections. As to conditions: chronic HBV infection; foscarnet in fulminant hepatitis; cited from earlier work.
A further data set has as its system HBV. Nature of the data set: Inhibition of HBV replication (secreted viral DNA, Southern analysis) in 2.2.15 cells. The data set is classed as cell-based, Hepatitis B virus (in human hepatoma cell line 2.2.15). The conditions noted are these: for IC50: Hepatitis B virus, 144 h, 2.2.15 cells, read-out: Anti-HBV ID50; for Activity against HBV, comparison / Inhibition of HBV DNA replication: in words. How it is done:
The biological activity of the present compounds was assessed as described by Doong, S-L, et al., Proc. Natl. Acad. Sci. U.S.A 88, 8495-8499 (1991). The human hepatoma cell line carrying the HBV (designated 2.2.15) kindly provided by Dr. G. Acs was used in the study. Price, et al., Proc. Natl. Acad. Sci. U.S.A. 86, 8541 (1989). Briefly, six day-old cultures were treated with varying concentrations of the drug in the culture medium (Minimum essential medium with Earl's salts and 10% fetal bovine serum). The drug was left in the culture medium for a period of 3 days after which period the medium was aspirated and fresh medium containing the same concentration(s) of the drug was added. At the end of the subsequent 3 day period the culture medium was harvested. The culture medium was processed for obtaining the virions by the polyethylene glycol precipitation method (Doong, et al., supra). Viral DNA thus recovered from the secreted particles was subjected to Southern analysis. Inhibition of the viral replication was determined by the comparison of the viral DNA from drug-treated versus control cultures not treated with the drug.

The nature of data set [3]: Cellular toxicity in T-lymphoblastoic cell line (CEM), cell numbers 3 days post treatment. The data set is classed as cell-based. The conditions noted are these: human; CEM cells, 3 days; read-out: Cytotoxicity CEM Cells ID50. The protocol: (§1) To determine the cellular toxicity of the present compounds, the T-lymphoblastoic cell line (CEM) was used. Cells were subjected to varying concentrations of the drug(s) and cell numbers were determined 3 days post treatment by the method described by Chen, C-H and Cheng, Y-C J. Biol. Chem., 264, 11934 (1989). Concentrations of the drug which would result in 50% killing of the cell populations were determined from the plot generated by representing cell numbers corresponding to the individual drug concentrations.

Another data set concerns HIV-1 (HTLV-IIIB Strain). Nature of the data set: Anti-HIV drug susceptibility assay in MT-2 cells (MTT dye reduction). Format: cell-based. As to conditions: for IC50: MT-2 cells; for Anti-HIV activity compared with ddC: in words. The protocol: Drug susceptibility assay for determining the effectiveness of the compounds of the present invention against HIV in MT-2 cells is a modification of the assay described in Mellors, et al., Molecular Pharmacology, 41, 446 (1992). Drug-mediated inhibition of virus-induced cell toxicity was measured by the A595 of MTT ([3-I 4,5-dimethyl thiazol-2-yl]-2,3-diphenyltetrazolium bromide) (Sigma M-2128). Triplicate wells of a 96 well plate which contains 1×10^4 MT2 cells (AIDS-repository) were infected with HIV-1 (HTLV-IIIB Strain-R.C. Gallo) at a multiplicity of 0.01 TCID50 /cell. MT-2 cells in RPMI 1640 media supplemented with 10% dialysized fetal bovine and 100 ug/ml Kanamycin were infected with virus and immediately added to serial dilution of the drug. After 5 days, 20 ul of MTT dye (2.5 mg/ml in PBS) was added per well. At the end of a four hour incubation period 150 ul of acidified 2-propanol with NP-40 non-ionic detergent was added. After the crystals of dye dissolve (usually 1-2 days), the plates are read on a micro-plate reader. Using this MTT-dye reduction method (as set forth by Larder, et al., Antimicrobial Agents and Chemotherapy, 34, 436 (1990), the percentage of protection can be calculated using the formula [(a-b/c-b)×100] in which a=A595 of drug treated cells, b is […] and c is the A595 of the non-drug infected cells.

The test system of the next data set is CEM Cells. Nature of the data set: Cellular toxicity in T-lymphoblastoic cell line (CEM), cell numbers 3 days post treatment. The conditions noted are these: in words, β-L-ddC / β-L-FddC versus ddC. The data set is classed as cell-based. How it is done: as §1
For data set [4] the following is noted: in words; cited from earlier work.
A short description of another data set: in vitro. The conditions noted are these: human, cem cells.
Data set [5] concerns mitochondrial DNA (mt DNA).
Experimental: (§2) The effects of the various drug concentrations on mitochondrial DNA (mt DNA) was evaluated by the method described by Chen and Cheng, supra. CEM cells treated with varying concentrations of the drug were collected by centrifugation. After washing the cells with phosphate buffered saline, cells were lysed by suspending the cells in 10 mM Tris-HCl (pH 7.0) and repeating freeze thaw cycles. The resulting cells were then subjected to RNase A treatment at a final enzyme concentration of 10 ug/ml, followed by proteinase K treatment (100 ug/ml) for 1 hour. The DNA thus obtained by this procedure was then immobilized on nylon membrane after the addition of 0.8 vol of NaI and boiling for 10 minutes. Hybridization of the resulting DNA to a mt DNA specific probe was performed by following the method of Doong, S-L, supra and autoradiography was also performed. Quantitative estimates were obtained by scanning densitometer. The blots were stripped of the mtDNA probe and rehybridized to human Alu sequence probe to determine the amounts of DNA for normalization and estimation of absolute amounts of the mt DNA.
Where [6] appears, read: Human immunodeficiency virus 1, MT2, 120 h, HIV-1 HTLV-IIIB, Table 1, read-out: Anti-HIV ID50.
The mark [7] stands for this setting: Human immunodeficiency virus 1, IIIB, MT2, 120 h, read-out: ID50 concentration required to inhibit viral replication (HIV).

“Also recorded” adds a separate entry of the source. Where two headings read alike, the source gives them in different places.

Experimental for in vitro: as §2

On to `Nc1nc(=O)n([C@@H]2CS[C@H](CO)O2)cc1F` (relative stereo) [(±)5-FSddC], for which the “Activity against Hepatitis B virus in culture” value (from here on “Activity … in culture”) in the data set on Hepatitis B virus is “potent activity”.
With `Nc1ccn([C@@H]2CS[C@H](CO)O2)c(=O)n1` (relative stereo) [(±) SddC, (+) and (-)-2',3'-Dideoxy-3'-thiacytidine], the “Activity … in culture” value in the data set on Hepatitis B virus is listed as “potent inhibitors of Hepatitis B virus”.
`Nc1ccn([C@H]2CS[C@@H](CO)O2)c(=O)n1` (stereo in doubt) [(-)isomer, (-)-2',3'-Dideoxy-3'-thiacytidine]: in the data set with Hepatitis B virus, the “Activity … in culture” value is given as “potent activity” and the Toxicity result is “relatively low toxicity”.
As for `[N-]=[N+]=N[C@H]1C[C@H](n2ccc(=O)[nH]c2=O)O[C@@H]1CO` [3'-azido-2',3'-dideoxyuridine], in [1], the “Activity against human immunodeficiency virus” value is recorded as “significant activity”.
`Nc1ncnc2c1ncn2[C@H]1C[C@H](F)[C@@H](CO)O1` [3'-fluoro-2',3'-dideoxyadenosine]: the “Activity against human immunodeficiency virus” value in [1] is listed as “significant activity”.
As to `Cc1cn([C@H]2C[C@H](F)[C@@H](CO)O2)c(=O)[nH]c1=O` [3'-fluoro-3'-deoxythymidine], the “Activity against human immunodeficiency virus” value in data set [1] is “significant activity”.
As for `Cc1cn([C@H]2C[C@H](N=[N+]=[N-])[C@@H](CO)O2)c(=O)[nH]c1=O` [AZT, 3'-azido-3'deoxythymidine], the “Success of therapy of hepatitis B” value in data set [2] is recorded as “little, if any, success”.
In the case of `Nc1nc2c(ncn2[C@H]2C=C[C@@H](CO)C2)c(=O)[nH]1` [Carbovir, carbocyclic analog of 2',3'-dideoxy-2',3'-didehydroguanosine], the “Activity against human immunodeficiency virus” value in data set [1] is “significant activity”.
With `Nc1ccn([C@H]2C=C[C@@H](CO)O2)c(=O)n1` [Compound D4C, 2',3'-dideoxy-2',3'-didehydrocytidine], the “Activity against human immunodeficiency virus” value in data set [1] is “significant activity”.
Regarding `Cc1cn([C@H]2C=C[C@@H](CO)O2)c(=O)[nH]c1=O` [Compound D4T, 3'-deoxy-2',3'-didehydrothymidine], the “Activity against human immunodeficiency virus” value in [1] is “significant activity”.
On to `OC[C@@H]1CC[C@H](n2cnc3c(O)ncnc32)O1` [DDI, 2',3'-dideoxyinosine], for which the “Activity against human immunodeficiency virus” value in [1] is recorded as “significant activity”.
For `Nc1nc2c(ncn2COCCO)c(=O)[nH]1` [acyclovir], the “Success of therapy of hepatitis B” value in data set [2] is reported as “little, if any, success”.
For `Nc1ncnc2c1ncn2[C@@H]1O[C@H](CO)[C@@H](O)[C@@H]1O` [adenine arabinoside], the “Success of therapy of hepatitis B” value in data set [2] is “limited success”.
`Nc1nc(=O)n([C@H]2CC[C@H](CO)O2)cc1F` [alpha-L-FddC, 1(2,3-dideoxy-alpha-L-ribofuranosyl)-5-fluorocytosine]: the IC50 came out at 500 nM in the data set on HBV and 300 nM with HIV-1 (HTLV-IIIB Strain) (setting [6]). The CC50 at 72 h in data set [3] is greater than 100000 nM.
As to `Nc1ccn([C@H]2CC[C@H](CO)S2)c(=O)n1` [alpha-L-ddSC, 1(2,3-dideoxy-4-thio-alpha-L-ribofuranosyl) cytosine], the IC50 is greater than 500 nM in the data set on HBV and greater than 100000 nM in the data set on HIV-1 (HTLV-IIIB Strain) (setting [6]). Moreover, the CC50 at 72 h in data set [3] was greater than 100000 nM.
Consider `Nc1ncnc2c1ncn2[C@@H]1O[C@H](COP(=O)(O)O)[C@@H](O)[C@@H]1O` [ara-AMP], for which the “Success of therapy of hepatitis B” value in [2] was “limited success”.
Regarding `Nc1ccn([C@H]2CC[C@@H](CO)O2)c(=O)n1` [ddC, 1-(2,3-dideoxy-beta-D-ribofuranosyl)cytosine, reference compound], the IC50 in the data set with HBV was 2800 nM; in the data set with HIV-1 (HTLV-IIIB Strain) (setting [7]), 28 nM; in the data set “in vitro”, 22 nM. Also, in data set [3], the CC50 at 72 h turned out to be 28000 nM. The “Cellular cytotoxicity, comparison with ddC” value (from here on “Cellular cytotoxicity”) with CEM Cells was “much more cytotoxic; also recorded: more cytotoxic than β-L-FddC”. Moreover, in the data set on HIV-1 (HTLV-IIIB Strain), the “Anti-HIV activity compared with ddC” value is listed as “less active against HIV”. Moreover, the “Activity against human immunodeficiency virus” value is listed as “among the most potent inhibitors of HIV” in data set [1] and “significant activity” in data set [1] (listed as DDC). In data set [4], the Dose limiting toxicity entry was “severe neuropathy”.
`O=C(O)P(=O)(O)O` [foscarnet]: in data set [2], the “Success of therapy of hepatitis B” value was “little, if any, success”.
For the compound `Nc1nc(=O)n([C@@H]2CC[C@H](CO)O2)cc1F` [β-L-FddC, 1-(2,3-dideoxy-beta-L-ribofuranosyl)-5-fluorocytosine], in the data set with HBV, the IC50 was determined as 10 nM; the “Activity against HBV, comparison” value is “several fold higher activity against HBV”; the “Inhibition of HBV DNA replication” value is given as “efficiently inhibited”. Besides, the CC50 at 72 h in data set [3] turned out to be 67000 nM. Besides, in the data set with CEM Cells, the “Cellular cytotoxicity” value was “considerably less”. Besides, the “Difference of anti-HIV ID50, β-L-FddC versus ddC” value in the data set on HIV-1 (HTLV-IIIB Strain) (0.007 vs 0.028 micromolar) is given as 4 fold. For the same compound, in the data set with HIV-1 (HTLV-IIIB Strain) (setting [7]), the IC50 came to 7 nM. In addition, in the data set on HIV-1 (HTLV-IIIB Strain), the “Anti-HIV activity compared with ddC” value is listed as “significantly more effective than ddC; also recorded: several fold higher activity against HIV”. Moreover, in data set [5], the “Effect on host mitochondrial DNA” value is given as “relatively little effect” and the “Toxicity associated with dose limiting neuropathy” value is given as “virtually no toxicity associated with dose limiting neuropathy”. This compound came in with an IC50 in the data set “in vitro” greater than 100000 nM.
As for `Nc1ccn([C@@H]2CC[C@H](CO)O2)c(=O)n1` [β-L-ddC, 1-(2,3-dideoxy-beta-L-ribofuranosyl)cytosine], in the data set on HBV, the IC50 is 10 nM; the “Activity against HBV, comparison” value was “several fold higher activity against HBV”; the “Inhibition of HBV DNA replication” value is listed as “efficiently inhibited”. In [3], the CC50 at 72 h came to 70000 nM. The “Cellular cytotoxicity” value in the data set on CEM Cells is “considerably less”. For the same compound, the IC50 in the data set with HIV-1 (HTLV-IIIB Strain) (setting [6]) turned out to be 350 nM. In the data set “in vitro”, the IC50 was greater than 100000 nM.
Turning to `Nc1ccn([C@@H]2CC[C@H](CO)S2)c(=O)n1` [β-L-ddSC, 1-(2,3-dideoxy-4-thio-beta-L-ribofuranosyl)cytosine], the IC50 in the data set with HBV was greater than 500 nM; in the data set with HIV-1 (HTLV-IIIB Strain) (setting [6]), 70000 nM. Moreover, in [3], the CC50 at 72 h was greater than 100000 nM.
Regarding interferon alpha, the “Success of therapy of hepatitis B” value in data set [2] was “limited success”.

The record behind these values is patent US5627160A, “L-2',3'-dideoxy nucleoside analogs as anti-hepatitis B (HBV) and anti-HIV agents” (priority 1993, dated 1997).
